{"source": "patent US10758536B2", "about": "“Method for treating shingles with N-methanocarbathymidine (N-MCT)” (priority 2015, dated 2020)", "key": {"VZV [1]": {"test_system": "VZV", "test": "EC50 determination in HFFs, VZV-BAC-Luc bioluminescence", "format": "cell-based, varicella-zoster virus", "method": "Human foreskin fibroblasts (HFFs) (CCD-1137Sk; American Type Culture Collection), used prior to passage 20 were grown in Eagle minimum essential medium with Earle's salts and L-glutamine (HyClone Laboratories), supplemented with 10% heat-inactivated fetal bovine serum (Benchmark FBS; Gemini Bio Products), penicillin-streptomycin (5000 IU/mL), amphotericin B (250 µg/mL), and nonessential amino acids (all Mediatech). VZV-BAC-Luc (Zhang et al., 2007), derived from the Parental Oka (POka, Accession number: AB097933) strain was propagated in HFFs. To prepare the virus for inoculation, VZV-infected HFFs were trypsinized, then washed and resuspended in TCM, and used immediately for direct injection. Each tissue was injected twice with 30 μL of the cell suspension using a 1 cc syringe fitted with a 27-gauge needle attached to a volumetric stepper (Tridak). […]\nThe first question we addressed was whether N-MCT was effective against VZV in cultured cells. A standard EC50 evaluation was performed using the VZV-BAC-Luc strain and virus yield was measured by bioluminescence. […]\nCells were treated for 48 hpi (hour post infection) and the medium containing the drug was changed after 24 h. VZV spread was measured by bioluminescence imaging at 48 hpi and expressed as Total Flux (photons/sec/cm^2/steradian). […]"}, "VZV [2]": {"test_system": "VZV", "test": "Skin organ culture assay, drug in medium", "format": "cell-based, varicella-zoster virus", "method": "Human foreskin fibroblasts (HFFs) (CCD-1137Sk; American Type Culture Collection), used prior to passage 20 were grown in Eagle minimum essential medium with Earle's salts and L-glutamine (HyClone Laboratories), supplemented with 10% heat-inactivated fetal bovine serum (Benchmark FBS; Gemini Bio Products), penicillin-streptomycin (5000 IU/mL), amphotericin B (250 µg/mL), and nonessential amino acids (all Mediatech). VZV-BAC-Luc (Zhang et al., 2007), derived from the Parental Oka (POka, Accession number: AB097933) strain was propagated in HFFs. To prepare the virus for inoculation, VZV-infected HFFs were trypsinized, then washed and resuspended in TCM, and used immediately for direct injection. Each tissue was injected twice with 30 μL of the cell suspension using a 1 cc syringe fitted with a 27-gauge needle attached to a volumetric stepper (Tridak). The needle was lightly dragged across the tissue approximately 5 times to scarify the surface to increase infection. Tissues were incubated at 37° C. for 3 h to allow the virus to adhere, and then placed individually on NetWells that had contact with 1.0 mL of tissue culture medium. The cell-associated VZV inoculum was titered on MeWo cells (Taylor and Moffat, 2005) and was typically 1.5×10^6 pfu/mL, which is approximately 9×10^4 pfu/tissue.\nIn skin organ culture, higher concentrations of N-MCT were needed to reduce VZV spread; virus yield was reduced ˜100-fold when [N-MCT] was greater than 10 μg/mL."}, "VZV [3]": {"test_system": "VZV", "test": "Skin organ culture topical Assay 3: vehicle comparison", "format": "cell-based, varicella-zoster virus", "method": "Place 36 mL deionized sterile water into small beaker with stir bar. Slowly waft 900 mg of carbopol (980 NF, Lot # CCONLCC013, Lubrizol Corp) into water, avoiding clumps. Add equal volume N-MCT in 20% hydroxypropyl-β-cyclodextrin (Sigma) at 2× to reach the desired concentration. Add 2 drops NaOH (18% solution) to attain a pH near 5.0. Store at 4° C. The 0.5% cidofovir gel was made in a similar manner except that cidofovir was dissolved in water. The DMSO vehicle was prepared by adding a 2% DMSO solution in water to the carbopol suspension at a 1:1 ratio. Hydroxypropyl-β-cyclodextrin (HPBCD) was prepared by mixing 5.0 g with 20 mL sterile water. Stock solution of N-MCT was prepared by dissolving 90 mg N-MCT in 9 mL 20% HPBCD and sonicating for 1 min.\nThis assay compared two vehicles, 1% DMSO and 10% hydroxypropyl-β-cyclodextrin (HPBCD) in carbopol gel, and 0.5% N-MCT in either vehicle. Refer to Assay #3 in Table 4 above. Each group was treated on Days 1-4 and scanned on Day 5, which is the typical assay protocol. The skin specimens were then cultured without drug or vehicle for another 6 days (scans on Day 7 and Day 11) to observe virus rebound. VZV yield was reduced in both Vehicle groups during the treatment phase, and then rebounded. This was likely due to the effects of the slightly acidic carbopol gel. There was little difference between the two vehicles. […] Importantly, there was no rebound in the groups treated with N-MCT. In fact, VZV yield continued to decrease after the treatment stopped."}, "VZV [4]": {"test_system": "VZV", "test": "Delayed N-MCT treatment in SCID-Hu mice", "format": "in vivo, varicella-zoster virus", "conditions": "50 mg/kg p.o. BID; treatment delayed 3 or 7 days after VZV infection", "method": "Statistical analysis: Data were analyzed using Student's t test or one-way ANOVA and Dunnett's Multiple Comparison post hoc tests. Calculations were made using GraphPad Prism 5.02 for Windows (GraphPad Software, San Diego, Calif., www.graphpad.com). A p<0.05 was considered statistically significant."}}, "note": "Entries after “also recorded” stand apart in the source; their conditions may differ.", "data": [{"smiles": "Cc1cn([C@]23C[C@H](O)[C@@H](CO)[C@@H]2C3)c(=O)[nH]c1=O", "note": "[N-MCT, N-methanocarbathymidine]", "values": [{"measurement": "EC50", "setting": "VZV [1]; Human alphaherpesvirus 3, Fibroblast, human foreskin fibroblasts, VZV-BAC-Luc, bioluminescence at 48 hpi", "result": 0.06, "unit": "µg/mL"}, {"measurement": "EC50", "setting": "VZV [1]; Human alphaherpesvirus 3, cultured cells", "result": 0.06, "unit": "µg/mL"}, {"measurement": "VZV growth in skin organ culture", "setting": "VZV [2]; FIG. 2", "result": "prevents VZV growth"}, {"measurement": "virus yield reduction", "setting": "VZV [2]; [N-MCT] greater than 10 μg/mL, skin organ culture", "result": "~100", "unit": "fold"}, {"measurement": "concentrations at which N-MCT prevents VZV spread in human skin explants", "setting": "VZV [2]; human skin explants, drug in medium", "result": "> 10", "unit": "µg/mL"}, {"measurement": "VZV yield", "setting": "VZV [3]; 0.5% N-MCT in 1% DMSO or 10% HPBCD carbopol gel, Days 1-4", "result": "substantial decrease"}, {"measurement": "cyclodextrin preparation compared with DMSO prep", "setting": "VZV [3]; 0.5% N-MCT in 10% HPBCD vs 1% DMSO carbopol", "result": "slightly more effective"}, {"measurement": "VZV rebound after treatment stopped", "setting": "VZV [3]; scans on Day 7 and Day 11, no drug after Day 5", "result": "no rebound"}, {"measurement": "effectiveness in vivo when treatment is delayed", "setting": "VZV [4]", "result": "effective; also recorded: can be delayed up to one week after infection"}]}]}
